Converted amounts (≈) assume the structure as drawn.
Tests used:
[1] = Test Example 10: saturation solubility in pure water; type: physicochemical; conditions: thermodynamic from solid, room temperature, shaken one hour
Description: Saturation Solubility in Pure Water
A test compound is prepared in pure water to be in the saturated state. This solution is shaken for one hour at room temperature. After the shaking, the entire amount of the solution is transferred into a filter tube, and the solution is filtered by centrifugation. The filtrate is analyzed by HPLC, and the saturation solubility of the test compound is determined using a calibration curve, based on the peak area value.
A standard solution is prepared by precisely weighing each test compound, and preparing a solution that sufficiently dissolves in pure water. The calibration curve is produced by assigning the concentration of the standard solution to the horizontal axis, and assigning the HPLC area peak at the concentration to the vertical axis.
YMC-Pack C18 (4.6 mm×150 mm) (manufactured by YMC Co., Ltd.) is used as a separating column. The detection is performed with UV-254 nm. Elution is carried out at a flow rate of 1 ml/min, using solution A=water [containing 0.1% (v/v) acetic acid] and solution B=acetonitrile as the solvents, under the conditions in which a linear gradient of the solution B is run from 5 to 98% (v/v) from zero minute to 20 minute, subsequently solution B is eluted at 98% up to 25 minute, and the solution B is eluted at 5% from 25.01 minute to 35 minute.

[2] = target: T1, human β1 adrenergic receptor (Homo sapiens, UniProt P08588); assay: Test Example 2-B: human β1 adrenergic receptor agonist activity (method of Test Example 1-B); type: cell-based; conditions: for β1 receptor EC50: Table 2, Test Example 2-B; for Emax: read-out: β1 receptor I.A.
T1 construct: expressed in transfected cells; host or cells: CHO (Chinese Hamster Ovary) cells, pcDNA3
Description: The measurement of human β3 adrenergic receptor agonist activity is carried out using CHO (Chinese Hamster Ovary) cells transfected with pcDNA3 (manufactured by Invitrogen, Inc.) to which human β3 gene has been inserted. […] This human β3 cDNA fragment is used as a probe, and the full length human β3 gene is obtained from a human genomic library (manufactured by Clontech Laboratories, Inc.). The above cells are cultured in Ham's F-12 medium containing 10% fetal bovine serum and 400 μg/ml geneticin (manufactured by Invitrogen, Inc.). These cells are seeded on a 96-well plate to a concentration of 2×10^4 cells/well, and after being cultured for about 20 hours, the cells are left to stand in 80 μL of serum-free Ham's F-12 medium for 15 minutes. A test compound is initially dissolved in DMSO, and then is diluted stepwise with Ham's F-12 containing 100 mmol/L HEPES and 1 mmol/L isobutylmethylxanthine. 20 μL of the dilution is added to the cells. After the cells are cultured for 30 minutes, the medium is removed. 0.3. ml of the Assay/lysis Buffer included in cAMP-Screen kit (manufactured by Applied Biosystems, Inc.) is added to the cells, and the cells are incubated at 37° C. for 30 minutes. The resulting cell lysate is subjected to quantification of cAMP with the cAMP-Screen kit. […] Measurement of Human β1 Adrenergic Receptor Agonist Activity

[3] = tested on: rat under pentobarbital anesthesia; assay: Test Example 9: effect on blood pressure and heart rate of rat under pentobarbital anesthesia; type: in vivo; conditions: 3 mg/kg intravenous, male SD rat, average value ± standard error of largest change
Description: Effect on Blood Pressure and Heart Rate of Rat Under Pentobarbital Anesthesia
The effect of intravenous bolus administration of a test compound exerted on the blood pressure and heart rate can be investigated by measuring the blood pressure and heart rate of a rat under pentobarbital anesthesia. 50 mg/kg of pentobarbital sodium (manufactured by Tokyo Chemical Industry Co., Ltd.) is intraperitoneally administered to a male SD rat (supplied by Japan SLC, Inc.) to induce anesthesia, and then 25 mg/kg of pentobarbital sodium is subcutaneously administered to maintain anesthesia. The left femoral vein is exposed and detached, and then a polyethylene tube SP10 (connected to a three-way stopcock via a ¼ vein needle) filled with physiological saline is inserted and placed in the vein.
The inner side of the left femur is incised, and the femoral artery is exposed and detached. A polyethylene tube (SP31, connected to a three-way stopcock via a Terumo injection needle 22G) filled with heparized physiological saline is inserted in the artery, and is connected to a pressure transducer. The blood pressure is measured from the pressure transducer through a pressure amplifier (AP-641G, Nihon Koden Corp.). The heart rate is measured by the Heart Rate Counter (AT-601G, Nihon Koden Corp.), using the pulse wave of the blood pressure as the trigger. The blood pressure, mean blood pressure and heart rate are outputted to a recorder and recorded. Here, the mean blood pressure is recorded by a pressure amplifier (AP-641G) according to the formula: {diastolic blood pressure+(systolic blood pressure−diastolic blood pressure)/3 }.
Measurement of the blood pressure and heart rate is initiated, and it is checked that the respective values are almost constant. 3 mg/kg of the test compound is administered through the left femoral vein for 30 seconds. Specifically, 3 mg/mL of the test compound is rapidly administered at a dose volume of 1 mL/kg. The relative values of the values of average blood pressure and heart rate at each time point with respect to the same values obtained before the initiation of administration, are determined for each individual, and the average value±standard error of the relative values (%) obtainable when each parameter changes the most, is determined.

[4] = target: T2, human β3 adrenergic receptor (Homo sapiens, UniProt P13945); assay: Test Example 1-A: human β3 adrenergic receptor agonist activity (cAMP EIA, transfected CHO cells, 24-well); type: cell-based; conditions: Table 1; for EC50: Test Example 1-A; for β3 receptor I.A.: maximum response to isoproterenol taken as 100%
T2 construct: the full length human β3 gene is obtained from a human genomic library; expressed in transfected cells; host or cells: CHO (Chinese Hamster Ovary) cells, pcDNA3, geneticin selection
Description: Measurement of Human β3 Adrenergic Receptor Agonist Activity
The measurement of human β3 adrenergic receptor agonist activity is carried out using CHO (Chinese Hamster Ovary) cells transfected with pcDNA3 (manufactured by Invitrogen, Inc.) to which human β3 gene has been inserted. […] This human β3 cDNA fragment is used as a probe, and the full length human β3 gene is obtained from a human genomic library (manufactured by Clontech Laboratories, Inc.). The above cells are cultured in Ham's F-12 medium containing 10% fetal bovine serum and 400 μg/ml geneticin (manufactured by Invitrogen, Inc.). These cells are seeded on a 24-well plate to a concentration of 1×10^5 cells/well, and after being cultured for about 20 hours, the cells are left to stand in serum-free Ham's F-12 medium for 2 hours. A test compound is initially dissolved in DMSO, and then is diluted stepwise with Ham's F-12 containing 20 mmol/L HEPES, 1 mmol/L isobutylmethylxanthine, and 1 mmol/L ascorbic acid. The dilution is added to the cells. After the cells are cultured for 30 minutes, and then the medium is removed, followed by addition of 0.1 ml of 1 N NaOH to the cells. The cells are left to stand for 20 minutes, and then are added with 0.1 ml of 1 N acetic acid and are stirred. The resulting cell lysate is centrifuged, and then is subjected to quantification of cAMP with cAMP EIA kit (manufactured by Cayman Chemical Co.).

T1 sequence (P08588 whole entry): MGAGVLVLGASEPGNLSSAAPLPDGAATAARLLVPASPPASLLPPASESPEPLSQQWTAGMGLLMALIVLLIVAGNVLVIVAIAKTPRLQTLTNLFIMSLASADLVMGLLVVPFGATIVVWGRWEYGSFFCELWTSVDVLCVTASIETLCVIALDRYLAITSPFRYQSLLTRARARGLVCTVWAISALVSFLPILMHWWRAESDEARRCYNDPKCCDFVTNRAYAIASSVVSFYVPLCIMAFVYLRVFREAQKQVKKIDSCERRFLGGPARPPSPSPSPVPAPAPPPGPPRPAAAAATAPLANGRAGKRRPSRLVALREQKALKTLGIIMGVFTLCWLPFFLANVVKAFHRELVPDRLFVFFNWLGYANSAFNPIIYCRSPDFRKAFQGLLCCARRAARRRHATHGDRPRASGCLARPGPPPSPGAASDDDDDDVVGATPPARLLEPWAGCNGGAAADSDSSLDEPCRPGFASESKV
T2 sequence (P13945 whole entry): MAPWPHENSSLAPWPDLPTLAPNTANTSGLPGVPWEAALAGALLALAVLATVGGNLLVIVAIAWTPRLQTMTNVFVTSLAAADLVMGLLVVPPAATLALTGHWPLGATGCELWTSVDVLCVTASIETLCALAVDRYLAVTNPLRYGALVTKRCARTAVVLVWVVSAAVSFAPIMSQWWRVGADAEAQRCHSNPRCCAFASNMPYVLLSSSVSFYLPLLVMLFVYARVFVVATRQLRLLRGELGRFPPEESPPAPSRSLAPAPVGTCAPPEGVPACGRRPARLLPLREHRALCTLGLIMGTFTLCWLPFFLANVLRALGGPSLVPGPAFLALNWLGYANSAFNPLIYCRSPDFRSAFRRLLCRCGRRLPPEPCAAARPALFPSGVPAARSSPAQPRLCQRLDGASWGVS

| solubility at 1 h [1] [mg/mL] | β1 receptor EC50 [2] | Emax [2] [%] | EC50 [4] [nM] | β3 receptor I.A. [4] [%] | SMILES | increase in MBP (%) [3] [%] |
| --- | --- | --- | --- | --- | --- | --- |
| 71 (≈ 155 mM) | a) | 6.3 |  |  | CS(=O)(=O)Nc1cccc([C@@H](O)CNCCOc2ccc3c(C(F)(F)F)n[nH]c3c2)c1 [Example 4, (R)-N-(3-(1-hydroxy-2-(2-(3-trifluoromethylindazol-6-yloxy)ethylamino)ethyl)phenyl)methanesulfonamide] | 3.1 ± 2.1 |
|  | a) | 12 |  |  | CC(C)c1n[nH]c2cc(OCCNC[C@H](O)c3cccc(NS(C)(=O)=O)c3)ccc12 [Example 1, (R)-N-(3-(1-hydroxy-2-(2-(3-isopropylindazol-6-yloxy)ethylamino)ethyl)phenyl)methanesulfonamide] | 4.7 ± 2.1 |
|  | a) | 18 |  |  | CCc1n[nH]c2cc(OCCNC[C@H](O)c3ccc(Cl)c(NS(C)(=O)=O)c3)ccc12 [Example 9, (R)-N-(2-chloro-5-(2-(2-(3-ethylindazol-6-yloxy)ethylamino)-1-hydroxyethyl)phenyl)methanesulfonamide] | 1.7 ± 2.7 |
| 50 (≈ 116 mM) | a) | 1 | 29 | 77 | CCCc1n[nH]c2cc(OCCNC[C@H](O)c3cccc(NS(C)(=O)=O)c3)ccc12 [Example 3, (R)-N-(3-(1-hydroxy-2-(2-(3-propylindazol-6-yloxy)ethylamino)ethyl)phenyl)methanesulfonamide] | 3.4 ± 3.7 |
|  | a) | 22 |  |  | CS(=O)(=O)Nc1cc([C@@H](O)CNCCOc2ccc3c(C(F)(F)F)n[nH]c3c2)ccc1Cl [Example 11, (R)-N-(2-chloro-5-(1-hydroxy-2-(2-(3-(trifluoromethyl)indazol-6-yloxy)ethylamino)ethyl)phenyl)methanesulfonamide] | 1.8 ± 1.4 |
|  | a) | 15 |  |  | CCc1n[nH]c2cc(OCCNC[C@H](O)c3ccc(F)c(NS(C)(=O)=O)c3)ccc12 [Example 8, (R)-N-(5-(2-(2-(3-ethylindazol-6-yloxy)ethylamino)-1-hydroxyethyl)-2-fluorophenyl)methanesulfonamide] | 0.4 ± 0.5 |
|  | a) | 7 |  |  | COc1n[nH]c2cc(OCCNC[C@H](O)c3cccc(NS(=O)(=O)c4ccccc4)c3)ccc12 [Example 16, (R)-N-(3-(1-hydroxy-2-(2-(3-methoxyindazol-6-yloxy)ethylamino)ethyl)phenyl)benzenesulfonamide] | 6.6 ± 3.2 |
|  |  |  | 7.4 | 82 | COCc1n[nH]c2cc(OCCNC[C@H](O)c3cccc(NS(C)(=O)=O)c3)ccc12 [Example 6, (R)-N-(3-(1-hydroxy-2-(2-(3-methoxymethylindazol-6-yloxy)ethylamino)ethyl)phenyl)methanesulfonamide] | 2.8 ± 1.1 |
| 491 (≈ 1000 mM) |  |  | 51 | 75 | CN(C)C(=O)CCc1n[nH]c2cc(OCCNC[C@H](O)c3cccc(NS(C)(=O)=O)c3)ccc12 [Example 5, (R)-3-(6-(2-(2-hydroxy-2-(3-(methylsulfonamido)phenyl)ethylamino)ethoxy)-indazol-3-yl)-N,N-dimethylpropanamide] | 3.4 ± 2.2 |

| SMILES | solubility at 1 h [1] [mg/mL] | β1 receptor EC50 [2] | Emax [2] [%] | EC50 [4] [nM] | β3 receptor I.A. [4] [%] | increase in MBP (%) [3] [%] |
| --- | --- | --- | --- | --- | --- | --- |
| CCc1n[nH]c2cc(OCCNC[C@H](O)c3cccc(NS(C)(=O)=O)c3)ccc12 [Example 2, (R)-N-(3-(1-hydroxy-2-(2-(3-ethylindazol-6-yloxy)ethylamino)ethyl)phenyl)methanesulfonamide] | 204 (≈ 487 mM) | a) | 5.8 | 29 | 77 | 3.1 ± 0.5 |

From patent US8008506B2, “Indazole compounds” (priority 2008, dated 2011)
